Laboratory results: patent publication US6624149B2, “Method for nucleic acid transfection of cells” (Genteric, Inc., priority 2000, dated 2003)

Key:
[1] = system: rat salivary gland (submandibular gland); assay: Intraductal transfection of rat salivary gland with pCMV.FOX.Luc-2, luciferase assay; assay type: in vivo; details: 48 hours
Description: Nucleic acid/transition metal enhancer mixtures were prepared by sequentially adding deionized water or a buffered solution, DNA, and a desired transition metal enhancer to a polystyrene tube with mixing. “Free” (i.e., “Naked”) DNA controls were prepared by sequentially adding DNA to water or a buffered solution
Male Sprague-Dawley rats (260-280 g) were fasted the night prior to treatment. After administration of the anesthesia (see Section 6.1.3), both right and left salivary gland ducts (specifically, Wharton's duct) were cannulated with fine polyurethane tubing (i.d. 0.005″) and cemented into the desired location. Atropine was then administered subcutaneously (0.5 mg/kg) and, after eight minutes, 50 μl of the nucleic acid/transition metal enhancer mixture was injected, infused, instilled or administered at the ductal orifice or directly into the duct at any point along its length. See Goldfine, Nature Biotechnology 15:1378, 1997.
Regardless of whether a liposome/transition metal/nucleic acid mixture or a nucleic acid/transition metal enhancer mixture was delivered, the tubing and mixture was kept in place for ten additional minutes after application of the mixture prior to removal. At 48 hours post atropine administration, the rats were anesthetized by intraperitoneal injection of pentobarbital (50 mg/kg). The right and left submandibular glands were surgically removed, and the tissues were assayed for any observable reporter gene (luciferase of hGH) expression using the methods described below.
The presently claimed invention describes a new method using a combination of a transition metal enhancer and a nucleic acid of interest for gene delivery. The present invention provides a method which may enhance gene expression by improving the efficiency of gene delivery. This change in gene expression can be quantitated using various assays, such as the luciferase assay. de Wet et al., Molec. Cell Biol. 7:725, 1987. In various experiments described herein, the right and left submandibular glands were removed from the male Sprague-Dawley rats at 48 hours post administration of the pCMV.FOX.Luc-2 containing solution. In additional experiments other organs, such as the rat lungs, were used.
In experiments in which submandibular glands were tested, the amount of luciferase present in the right and left submandibular gland of each male Sprague-Dawley rat was measured independently and treated as separate, individual experiments (e.g., trials) because the amount of luciferase expressed by one submandibular gland is independent of the amount of luciferase expressed in the other submandibular gland. Therefore, each submandibular gland was independently lysed in lysis buffer (1.0 ml buffer per 0.1 g tissue) to create a lysis homogenate. The lysis buffer contained 100 mM K2PO4 pH 7.0, 1 mM dithiothreitol, and 1% Triton X-100. A 100 μl aliquot of lysis homogenate from each submandibular gland was analyzed for luciferase activity (de Wet et al., Molec. Cell Biol. 7:725, 1987) using a Monolight 2010 luminometer (Analytical Luminescence Laboratories). Accordingly, luciferase light emissions from each aliquot of the lysis homogenate were measured over a ten second period.
Activity was expressed as relative light units, values collectively representing the assay conditions, luciferase concentration, luminometer photomultiplier tube sensitivity and background. Using well known techniques, the luciferase light units may be converted, for example, to picograms of luciferase protein. See, e.g., Felgner et al., U.S. Pat. No. 5,580,899 at Example 13. All experiments were performed in duplicate. In experiments using submandibular glands, data from each individual submandibular gland lysis homogenate is reported as a single trial.

mouse lung = assay: Intra-tracheal transfection of mouse lung, luciferase assay; assay type: in vivo; details: 3.6 mM zinc chloride
Description: Male BALB/c mice (specific pathogen free, Charles River Laboratories; 20-21 g) were used in the transfection experiments. Anesthesia was provided for all invasive procedures; animals were terminated by intraperitoneal administration of pentobarbital according to standard protocols. Neck dissections were performed on anesthetized mice using a one centimeter incision through the skin of the anterior neck. […] For comparison, a free nucleic acid solution (150 μl containing 512 μg of DNA) was prepared in sterile water and delivered in a similar manner. After injection, the point of incision was repaired using staples. The mice were terminated within 48 hours after treatment. […] An experiment was conducted to determine if transition metals promote in vivo transfection of the mouse lung. […] The final zinc chloride concentration of this mixture was 3.6 mM. […] For comparison, 150 μl of a DNA solution (354 μg DNA) was also administered to intratracheally to the lungs of four mice. At 48 hours post administration, the tracheal/lung block was dissected and assayed for luciferase specific activity as described above.

[Cl-].[Cl-].[Zn+2] [ZnCl2, zinc chloride]
Average relative light units ([1]; Table 2, metal chloride 0.9 mM, 32 μg DNA in 50 μl, eight glands): 63842 relative light units | Average relative light units ([1]; Table 3, metal chloride 0.9 mM, 32 μg DNA in 50 μl, Tris-HCl/EDTA, eight glands): 5685 relative light units | Average relative light units ([1]; Table 6, zinc 3.6 mM, 128 μg DNA in 50 μl): 243362 relative light units | Average relative light units ([1]; Table 7, ZnCl2 3.6 mM, pH 5.5, 128 μg DNA in 50 μl): 252446 relative light units | Average relative light units ([1]; Table 7, ZnCl2 3.6 mM, pH 6.5, 128 μg DNA in 50 μl): 196002 relative light units | Average relative light units ([1]; Table 7, ZnCl2 3.6 mM, pH 7.5, 128 μg DNA in 50 μl): 260340 relative light units | Average relative light units ([1]; Table 7, ZnCl2 3.6 mM, pH 8.5, 128 μg DNA in 50 μl): 277958 relative light units | Improvement of transfection activity relative to the "free" DNA solution (mouse lung): 5 fold
